Assays:
NCI-H446 cells = assay: ADCC assay (LDH release), human spleen effector cells; assay type: cell-based; conditions: NCI-H446 target cells
Procedure: (§1) NCI-H520, A549 and NCI-H446 cells (1×10^4 per well) were incubated with Metuzumab or cHAb18 mAb for 30 min at 37° C. Effector cells (Spleen cells) were added at the ratio of effector cells to […] (E/T) 50:1 for 24 hours at 37° C. in CO2 incubator. After centrifugation, supernatants were harvested and lactate dehydrogenase (LDH) activity were measured. Data represent mean±SD of five independent experiments.
(§2) The ADCC activity was determined by measuring lactate dehydrogenase (LDH) activity in the medium using a Cytotoxicity Detection Kit (LDH; Roche) according to the manufacturer's protocols.
(§3) In vitro ADCC assays were performed with human lung cancer cell lines (NCI-H520, A549 and NCI-H446) as target cells, and human spleen cells were used as effector cells. The target cells (1×10^4 per well) were washed with PBS and pre-incubated with antibodies solution for 30 min at 37° C. in serum-free RPMI-1640 supplemented with 0.1% BSA. The antibody solution (Metuzumab or the chimeric antibody cHAb18 mAb) that has been adjusted to a concentration of 0.001, 0.01, 0.1, 1 or 10 μg/ml was dispensed at 100 μl/well into each well that contained the target cells, Subsequently, 100 μl of the effector cells at an effector/target ratio of 50:1 was dispensed into each well, and incubated at in a carbon dioxide incubator. The cells were incubated for an additional 24 h prior to the detection of cell death by measuring lactate dehydrogenase (LDH) activity in the medium using a Cytotoxicity Detection Kit (LDH; Roche) according to the manufacturer's protocols. The ADCC-inducing activity was calculated to the following formula: Cytotoxicity (expressed as a percentage)=(experimental cell lysis−spontaneous effector lysis−spontaneous target lysis)/(maximum target lysis−spontaneous target lysis)×100%. All assays were performed in triplicate.

NCI-H520 cells [1] = assay: as above; assay type: cell-based; conditions: NCI-H520 target cells
Procedure: as §1, §2, §3

A549 cells [2] = assay: as above; assay type: cell-based; conditions: A549 target cells
Procedure: as §1, §2, §3

NCI-H520 cells [3] = assay: Wound healing (migration) assay; assay type: cell-based, human
Procedure: (§4) Wound healing and transwell invasion assays were performed. For wound healing assay, 2×10^4 cells were plated in 24-well plate to form cell monolayer and allowed to reach confluence for 2 days. A wound was made in the monolayer (at time 0) by a 200 μl tip. After wash of the monolayer, Metuzumab solution was dispensed at 0.1 μg/ml, 1 μg/ml and 10 μg/ml, respectively, at 200 μl/well into each well. Saline was used as control. The distance between two sides of an open wound was measured under a CX71 microscope (Olympus). The distance between the two sides of the wound after 20-72 h of migration was divided by the distance at time 0 and represented on a graph. The experiments were performed in triplicates, the results were shown as mean±SD.

A549 cells [4] = assay: Wound healing (migration) assay; assay type: cell-based, human
Procedure: as §4

NCI-H520 cells [5] = assay: Transwell invasion assay; assay type: cell-based, human; conditions: 24 hours
Procedure: (§5) For invasion assay, NCI-H520 or A549 cells were serum-starved for 12 hours in DMEM containing 0.1% FBS. Serum-starved cells were trypsinized and re-suspended in DMEM containing 0.1% FBS and Metuzumab solution at 0.1 μg/ml, 1 μg/ml and 10 μg/ml, respectively. 5×10^4 cells were added to the upper chamber of each well (6.5 mm in diameter, 8-μm pore size; Corning, N.Y.) coated with […] Matrigel (BD Bioscience). Medium containing 10% FBS was placed in the lower compartment of the chamber. After 24 hours at 37° C., cells on the upper membrane surface were removed by careful wiping with a cotton swab, and the filters were fixed by treatment with 95% ethanol for 30 minutes and stained with 0.2% crystal violet solution for 30 minutes. Invasive cells adhering to the undersurface of the filter were then counted (five high-power fields/chamber) using a CX71 microscope (Olympus).

A549 cells [6] = assay: Transwell invasion assay; assay type: cell-based, human; conditions: 24 hours
Procedure: as §5

NCI-H520 cells [7] = assay: Subcutaneous xenograft model, tumor growth inhibition; assay type: in vivo, SCID mice; conditions: tail vein
Procedure: Mice injected with NCI-H520 cells subcutaneously in the right dorsal flank were treated by intravenous saline; 2 mg/kg Cisplatin and 100 mg/kg Gemcitabine; Metuzumab infusion at 2 mg/kg, 10 mg/kg and 30 mg/kg; combination of 10 mg/kg Metuzumab with 2 mg/kg Cisplatin and 100 mg/kg Gemcitabine; wherein the antibodies were injected twice weekly for 3 week consecutively, while the chemotherapeutic agents were injected once a week for 3 weeks consecutively. The tumors were measured twice a week.
Animals were housed in specific pathogen-free (SPF) condition. For the localized subcutaneous xenograft mouse model, 1×10^6 NCI-H520 or A549 cells, suspended in Hank's balanced salt solution were implanted in the right dorsal flank of male SCID mice (6-8 week old). When tumors reached a mean volume of 100 mm^3, mice were randomized into treatment cohorts (n=10 mice per group). Mice were grouped for different treatments, including Metuzumab treatment groups treated with 2 mg/kg, 10 mg/kg and 30 mg/kg Metuzumab; chemistry treatment group treated with 2 mg/kg Cisplatin and 100 mg/kg Gemcitabine; combination treatment group treated with 10 mg/kg Metuzumab with 2 mg/kg Cisplatin and 100 mg/kg Gemcitabine, or saline (control group) via tail vein, respectively. Antibody injections were administered twice weekly, for 3 weeks consecutively; chemotherapeutic agents were administered once a week, for 3 weeks consecutively. Tumor size was measured twice each week for the duration of the study using calipers. Tumor volumes were determined using the following formula: […]. Antitumor activity was assessed by calculating inhibition ratio of tumor volumes (IRTV) based on medians by using following formula: [1−average (Ttreatment (day x)−Ttreatment (day 0))/average (Tcontrol (day x)−Tcontrol (day 0))]×100%.

EC50% (ADCC) (NCI-H446 cells; effector/target 50:1, 24 h): 0.11 µg/mL
EC50% (ADCC) (NCI-H520 cells [1]; effector/target 50:1, 24 h): 0.04 µg/mL
EC50% (ADCC) (A549 cells [2]; effector/target 50:1, 24 h): 0.06 µg/mL
Substance: Metuzumab: human-mouse chimeric anti-CD147 IgG1, heavy chain SEQ ID NO: 4, light chain SEQ ID NO: 3, Mannose-5 glycoform lacking fucose and xylose
ADCC-inducing activity increase over cHAb18 mAb (NCI-H446 cells): about 10 folds
ADCC-inducing activity increase over cHAb18 mAb (NCI-H520 cells [1]): about 10 folds
ADCC-inducing activity increase over cHAb18 mAb (A549 cells [2]): about 10 folds
migration activity decrease compared to control group (NCI-H520 cells [3]; NCI-H520, 0.1 μg/ml): 20.2%
migration rate (NCI-H520 cells [3]; NCI-H520, 0.1 μg/ml (saline 18.8 μm/hr)): 15.0 μm/hr
migration activity decrease compared to control group (NCI-H520 cells [3]; NCI-H520, 1 μg/ml): 34.0%
migration rate (NCI-H520 cells [3]; NCI-H520, 1 μg/ml (saline 18.8 μm/hr)): 12.4 μm/hr
migration activity decrease compared to control group (NCI-H520 cells [3]; NCI-H520, 10 μg/ml): 44.1%
migration rate (NCI-H520 cells [3]; NCI-H520, 10 μg/ml (saline 18.8 μm/hr)): 10.5 μm/hr
migration activity repressed compared to control group (A549 cells [4]; A549, 0.1 μg/ml): 24.4%
migration rate (A549 cells [4]; A549, 0.1 μg/ml (control 20.1 μm/hr)): 15.2 μm/hr
migration activity repressed compared to control group (A549 cells [4]; A549, 1 μg/ml): 38.3%
migration rate (A549 cells [4]; A549, 1 μg/ml (control 20.1 μm/hr)): 12.4 μm/hr
migration activity repressed compared to control group (A549 cells [4]; A549, 10 μg/ml): 50%
migration rate (A549 cells [4]; A549, 10 μg/ml (control 20.1 μm/hr)): 10.1 μm/hr
invasiveness repressed compared to control groups (NCI-H520 cells [5]; NCI-H520, 0.1 μg/ml): 30.0%
invasiveness repressed compared to control groups (NCI-H520 cells [5]; NCI-H520, 1 μg/ml): 48.0%
invasiveness repressed compared to control groups (NCI-H520 cells [5]; NCI-H520, 10 μg/ml): 66.2%
invasiveness repressed compared to control groups (A549 cells [6]; A549, 0.1 μg/ml): 53.5%
invasiveness repressed compared to control groups (A549 cells [6]; A549, 1 μg/ml): 61.5%
invasiveness repressed compared to control groups (A549 cells [6]; A549, 10 μg/ml): 74.6%
inhibition ratio of tumor volumes (IRTV) (NCI-H520 cells [7]; 2 mg/kg twice weekly for 3 weeks): 49.53%
inhibition ratio of tumor volumes (IRTV) (NCI-H520 cells [7]; 10 mg/kg twice weekly for 3 weeks): 53.34%
inhibition ratio of tumor volumes (IRTV) (NCI-H520 cells [7]; 30 mg/kg twice weekly for 3 weeks): 57.75%

— patent publication US9963506B2, “Human-mouse chimeric anti-CD147 antibody with non-fucosylated glycosylation” (Fourth Military Medical University, priority 2015, dated 2018)
